According to patent EP4813991A1 (iLeadBMS Co., Ltd., priority 2023, dated 2025):
Read-outs that look alike come from different tables or passages of the source.

Experiments:
[1] = molecular target: T1, CDK12 (Homo sapiens, UniProt Q9NYV4); test: CDK12 kinase inhibitory activity assay (33P-ATP filter binding); assay type: biochemical
Summary of the method: (§1)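 Radiometric filter-binding read-out: after 20 min compound–enzyme/substrate pre-incubation across 9 concentrations, reaction started with ^33P-γ-ATP and run 120 min at room temperature. Filter-bound ^33P-substrate measured after 0.75 % phosphoric acid washes; remaining activity versus DMSO gives IC50.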

[2] = molecular target: CDK13 (Homo sapiens, UniProt Q14004); test: CDK13 kinase inhibitory activity assay (33P-ATP filter binding); assay type: biochemical
Chain of CDK13 (Q14004 whole entry, species assumed): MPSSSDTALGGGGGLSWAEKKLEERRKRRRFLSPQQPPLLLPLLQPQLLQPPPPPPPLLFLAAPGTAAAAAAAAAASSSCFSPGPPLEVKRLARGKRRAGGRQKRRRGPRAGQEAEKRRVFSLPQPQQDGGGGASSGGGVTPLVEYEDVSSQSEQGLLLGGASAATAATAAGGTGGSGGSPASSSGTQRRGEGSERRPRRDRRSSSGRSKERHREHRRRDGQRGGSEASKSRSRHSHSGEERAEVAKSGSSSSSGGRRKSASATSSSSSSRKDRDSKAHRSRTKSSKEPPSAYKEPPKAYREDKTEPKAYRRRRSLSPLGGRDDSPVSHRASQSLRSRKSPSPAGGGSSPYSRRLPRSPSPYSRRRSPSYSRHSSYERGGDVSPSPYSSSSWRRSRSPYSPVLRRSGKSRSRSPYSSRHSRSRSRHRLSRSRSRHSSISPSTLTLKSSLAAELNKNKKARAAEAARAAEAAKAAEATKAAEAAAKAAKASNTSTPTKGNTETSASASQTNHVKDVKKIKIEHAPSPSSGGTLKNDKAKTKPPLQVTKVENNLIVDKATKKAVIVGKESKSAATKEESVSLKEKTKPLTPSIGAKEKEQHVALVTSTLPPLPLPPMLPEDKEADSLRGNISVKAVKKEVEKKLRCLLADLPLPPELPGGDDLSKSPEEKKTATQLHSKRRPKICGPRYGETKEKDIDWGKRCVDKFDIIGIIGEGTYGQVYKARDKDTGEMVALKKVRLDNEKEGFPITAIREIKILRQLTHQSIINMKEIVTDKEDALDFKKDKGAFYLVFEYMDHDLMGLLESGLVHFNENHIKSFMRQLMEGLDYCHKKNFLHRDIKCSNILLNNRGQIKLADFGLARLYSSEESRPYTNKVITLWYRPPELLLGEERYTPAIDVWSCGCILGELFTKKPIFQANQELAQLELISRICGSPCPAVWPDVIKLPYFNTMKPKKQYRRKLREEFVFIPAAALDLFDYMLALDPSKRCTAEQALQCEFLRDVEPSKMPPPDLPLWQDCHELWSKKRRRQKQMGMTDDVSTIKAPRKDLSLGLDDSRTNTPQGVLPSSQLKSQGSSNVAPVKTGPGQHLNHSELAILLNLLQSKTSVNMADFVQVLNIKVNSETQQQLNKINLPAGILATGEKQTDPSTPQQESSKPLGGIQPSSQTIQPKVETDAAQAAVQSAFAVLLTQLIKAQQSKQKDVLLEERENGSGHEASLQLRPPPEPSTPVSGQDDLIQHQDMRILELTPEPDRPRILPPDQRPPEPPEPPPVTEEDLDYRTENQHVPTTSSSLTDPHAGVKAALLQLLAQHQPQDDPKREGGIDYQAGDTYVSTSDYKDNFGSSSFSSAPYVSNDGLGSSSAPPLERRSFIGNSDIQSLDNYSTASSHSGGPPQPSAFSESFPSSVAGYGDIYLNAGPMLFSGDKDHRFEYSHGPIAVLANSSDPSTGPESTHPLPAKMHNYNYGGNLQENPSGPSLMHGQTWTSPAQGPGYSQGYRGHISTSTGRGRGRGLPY
Chain of CDK13 (O75909 whole entry partner, species assumed): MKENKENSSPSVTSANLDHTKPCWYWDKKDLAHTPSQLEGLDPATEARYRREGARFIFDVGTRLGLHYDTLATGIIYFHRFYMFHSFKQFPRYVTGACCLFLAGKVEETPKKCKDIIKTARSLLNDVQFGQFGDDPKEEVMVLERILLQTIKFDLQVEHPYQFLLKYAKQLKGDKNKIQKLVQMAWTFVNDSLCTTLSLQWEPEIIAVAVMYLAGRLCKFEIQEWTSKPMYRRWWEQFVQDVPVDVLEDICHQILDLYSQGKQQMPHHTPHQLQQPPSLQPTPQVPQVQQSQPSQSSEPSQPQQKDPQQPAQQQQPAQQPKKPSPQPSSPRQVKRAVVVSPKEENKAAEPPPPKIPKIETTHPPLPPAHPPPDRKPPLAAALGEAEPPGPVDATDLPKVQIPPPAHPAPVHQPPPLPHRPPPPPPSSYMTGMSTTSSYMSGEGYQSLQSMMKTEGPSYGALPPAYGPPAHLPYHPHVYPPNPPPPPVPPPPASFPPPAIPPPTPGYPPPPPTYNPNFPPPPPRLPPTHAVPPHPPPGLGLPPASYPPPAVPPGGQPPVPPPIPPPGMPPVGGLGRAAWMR
Summary of the method: as §1

[3] = tested on: MDA-MB-231 breast cancer cells; test: Proliferation inhibitory activity assay against MDA-MB-231 breast cancer cells; assay type: cell-based; conditions: Homo sapiens, 72 hours, CellTiter Glo, relative IC50
Summary of the method: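 Cells grown in L-15 with 10% FBS at 37 °C, 0% CO2, then exposed next day to compounds at 9 concentrations (DMSO vehicle) for 72 h. Viability read by CellTiter Glo luminescence; relative IC50 from dose-response curve fit.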

[4] = molecular target: T1, CDK12; test: Cellular CDK12 inhibitory activity assay (Ser2 phosphorylation of RNA polymerase II subunit B1 CTD in MDA-MB-231 cells); assay type: cell-based; set-up: using MDA-MB-231 breast cancer cells; endogenous in cells; host or cells: MDA-MB-231; conditions: MDA-MB-231 cells, 6 hours treatment; read-out: pRpbl CTD S2 IC50
Summary of the method: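 MDA-MB-231 cells in L-15 with 10 % FBS were treated with compound at 9 concentrations for 6 h at 37 °C, 0 % CO2. In-Cell Western read phospho-Ser2 and total RNA polymerase II CTD on a Li-COR Odyssey; IC50 from 4-parameter dose-response fit.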

[5] = kinase reaction 120 minutes, 33P-gamma-ATP; read-out: CDK12 IC50
[6] = kinase reaction 120 minutes, 33P-gamma-ATP, read-out: CDK13 IC50

T1 sequence (Q9NYV4 whole entry, species assumed): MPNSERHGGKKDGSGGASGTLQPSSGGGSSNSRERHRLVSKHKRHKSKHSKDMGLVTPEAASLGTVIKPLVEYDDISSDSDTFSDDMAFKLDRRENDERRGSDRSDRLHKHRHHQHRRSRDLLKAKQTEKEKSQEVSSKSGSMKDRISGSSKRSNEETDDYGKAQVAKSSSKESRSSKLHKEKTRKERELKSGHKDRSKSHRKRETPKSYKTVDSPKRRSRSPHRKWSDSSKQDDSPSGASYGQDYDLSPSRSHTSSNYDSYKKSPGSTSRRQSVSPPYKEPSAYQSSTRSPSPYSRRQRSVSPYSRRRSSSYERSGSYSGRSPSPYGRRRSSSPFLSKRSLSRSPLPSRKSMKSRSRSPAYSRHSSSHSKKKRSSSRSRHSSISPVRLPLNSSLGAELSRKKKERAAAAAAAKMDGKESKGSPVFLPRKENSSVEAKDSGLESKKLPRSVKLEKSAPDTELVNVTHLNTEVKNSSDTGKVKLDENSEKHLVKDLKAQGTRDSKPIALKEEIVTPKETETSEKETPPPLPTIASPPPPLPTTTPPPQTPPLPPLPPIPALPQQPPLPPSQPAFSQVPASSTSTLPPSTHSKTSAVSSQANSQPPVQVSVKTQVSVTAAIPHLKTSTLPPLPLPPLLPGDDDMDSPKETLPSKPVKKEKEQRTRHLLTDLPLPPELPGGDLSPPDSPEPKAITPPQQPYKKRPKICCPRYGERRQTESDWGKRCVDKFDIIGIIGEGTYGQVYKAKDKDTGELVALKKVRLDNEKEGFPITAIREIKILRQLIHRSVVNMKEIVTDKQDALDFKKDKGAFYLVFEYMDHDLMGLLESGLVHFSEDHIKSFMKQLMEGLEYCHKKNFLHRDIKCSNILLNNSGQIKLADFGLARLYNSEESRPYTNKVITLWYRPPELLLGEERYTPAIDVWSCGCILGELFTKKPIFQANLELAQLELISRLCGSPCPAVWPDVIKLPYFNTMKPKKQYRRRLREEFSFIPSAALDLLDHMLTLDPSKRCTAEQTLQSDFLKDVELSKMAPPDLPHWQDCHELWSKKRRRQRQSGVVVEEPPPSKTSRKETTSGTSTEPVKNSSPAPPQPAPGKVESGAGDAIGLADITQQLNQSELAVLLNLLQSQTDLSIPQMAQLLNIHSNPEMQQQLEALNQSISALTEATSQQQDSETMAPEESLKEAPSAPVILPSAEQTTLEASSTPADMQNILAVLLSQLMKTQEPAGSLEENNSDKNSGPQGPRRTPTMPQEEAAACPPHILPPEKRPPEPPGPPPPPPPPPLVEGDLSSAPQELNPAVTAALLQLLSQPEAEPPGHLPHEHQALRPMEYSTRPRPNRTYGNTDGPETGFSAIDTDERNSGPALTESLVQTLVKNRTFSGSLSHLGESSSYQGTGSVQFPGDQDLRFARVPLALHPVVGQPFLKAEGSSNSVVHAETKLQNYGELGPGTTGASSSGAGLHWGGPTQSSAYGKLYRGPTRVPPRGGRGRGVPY
T1 sequence (O75909 whole entry partner, species assumed): as the sequence (O75909 whole entry partner, species assumed) above

SMILES	IC50 [1, 5] [nM]	IC50 [2, 6] [nM]	IC50 [3] [nM]	IC50 [4] [nM]	IC50 [2] [nM]	IC50 ([1]; read-out: CDK12 IC50; kinase reaction 120 minutes, 33P-gamma-ATP) [nM]
Cc1cnc2c(NCc3nc4ccc(F)c(F)c4[nH]3)cc(N3CCOCC3)nn12 [Example 4, N-((6,7-difluoro-1H-benzo[d]imidazol-2-yl)methyl)-3-methyl-6-morpholinoimidazo[1,2-b]pyridazin-8-amine]	> 500	100 to 500	> 500	> 3000		
CC(C)c1cnc2c(NCc3nc4ccc(F)c(F)c4[nH]3)cc(N3CCOCC3)nn12 [Example 3, N-((6,7-difluoro-1H-benzo[d]imidazol-2-yl)methyl)-3-isopropyl-6-morpholinoimidazo[1,2-b]pyridazin-8-amine]	> 500		50 to 500	300 to 3000	100 to 500	
CC(C)(O)C1CN(c2cc(NCc3nc4cc(Cl)c(Cl)cc4[nH]3)c3ncc(C(F)(F)F)n3n2)C1 [Example 48, 2-(1-(8-(((5,6-dichloro-1H-benzo[d]imidazol-2-yl)methyl)amino)-3-(trifluoromethyl)imidazo[1,2-b]pyridazin-6-yl)azetidin-3-yl)propan-2-ol]	> 500	100 to 500	50 to 500	< 300		
FC(F)(F)c1cnc2c(NCc3nc4cc(Cl)c(Cl)cc4[nH]3)cc(N3CC4CCC3CO4)nn12 (centres unmarked) [Example 43, 6-(2-oxa-5-azabicyclo[2.2.2]octan-5-yl)-N-((5,6-dichloro-1H-benzo[d]imidazol-2-yl)methyl)-3-(trifluoromethyl)imidazo[1,2-b]pyridazin-8-amine]	100 to 500	100 to 500	50 to 500	300 to 3000		
FC(F)(F)c1cnc2c(NCc3nc4cc(Cl)c(Cl)cc4[nH]3)cc(N3CC4CCC(C3)N4)nn12 [Example 94, 6-(3,8-diazabicyclo[3.2.1]octan-3-yl)-N-((5,6-dichloro-1H-benzo[d]imidazol-2-yl)methyl)-3-(trifluoromethyl)imidazo[1,2-b]pyridazin-8-amine]	< 100	< 100	≤ 50	< 300		
OC1CC2(C1)CN(c1cc(NCc3nc4cc(Cl)c(Cl)cc4[nH]3)c3ncc(C(F)(F)F)n3n1)C2 [Example 47, 2-(8-(((5,6-dichloro-1H-benzo[d]imidazol-2-yl)methyl)amino)-3-(trifluoromethyl)imidazo[1,2-b]pyridazin-6-yl)-2-azaspiro[3.3]heptan-6-ol]	100 to 500	< 100	≤ 50	< 300		
Fc1ccc2nc(CNc3cc(N4CCOCC4)nn4c(CC(F)(F)F)cnc34)[nH]c2c1F [Example 2, N-((6,7-difluoro-1H-benzo[d]imidazol-2-yl)methyl)-6-morpholino-3-(2,2,2-trifluoroethyl)imidazo[1,2-b]pyridazin-8-amine]	100 to 500		50 to 500	300 to 3000	100 to 500	
Nc1ncc(-c2cc(NCc3nc4ccc(F)c(F)c4[nH]3)c3ncc(C#CC4CC4)n3n2)cn1 [Example 21, 6-(2-aminopyrimidin-5-yl)-3-(cyclopropylethynyl)-N-((6,7-difluoro-1H-benzo[d]imidazol-2-yl)methyl)imidazo[1,2-b]pyridazin-8-amine]	> 500	> 500	> 500	> 3000		
FC(F)(F)c1cnc2c(NCc3nc4cc(Cl)c(Cl)cc4[nH]3)cc(N3CC4CC(C3)O4)nn12 [Example 32]		100 to 500	≤ 50	< 300		100 to 500
FC(F)(F)c1cnc2c(NCc3nc4cc(Cl)c(Cl)cc4[nH]3)cc(N3C4CNCC3C4)nn12 [Example 99, 6-(3,6-diazabicyclo[3.1.1]heptan-6-yl)-N-((5,6-dichloro-1H-benzo[d]imidazol-2-yl)methyl)-3-(trifluoromethyl)imidazo[1,2-b]pyridazin-8-amine]	100 to 500	100 to 500	≤ 50	< 300		

Further lines, with some results ahead:

IC50 [1, 5] [nM]	IC50 [2, 6] [nM]	IC50 [3] [nM]	IC50 [4] [nM]	IC50 [2] [nM]	SMILES	IC50 ([1]; read-out: CDK12 IC50; kinase reaction 120 minutes, 33P-gamma-ATP) [nM]
< 100	< 100	≤ 50	< 300		Cc1cc2[nH]c(CNc3cc(N4CCOCC4)nn4c(C(F)(F)F)cnc34)nc2cc1Cl [Example 79, N-((5-chloro-6-methyl-1H-benzo[d]imidazol-2-yl)methyl)-6-morpholino-3-(trifluoromethyl)imidazo[1,2-b]pyridazin-8-amine]	
< 100		50 to 500	300 to 3000	< 100	Cc1cc(C)n2cc(CNc3cc(N4CCOCC4)nn4c(C(F)(F)F)cnc34)nc2n1 [Example 88, N-((5,7-dimethylimidazo[1,2-a]pyrimidin-2-yl)methyl)-6-morpholino-3-(trifluoromethyl)imidazo[1,2-b]pyridazin-8-amine]	
100 to 500	< 100	> 500	> 3000		O=C(O)C1CN(c2cc(NCc3nc4cc(Cl)c(Cl)cc4[nH]3)c3ncc(C(F)(F)F)n3n2)C1 [Example 64, 1-(8-(((5,6-dichloro-1H-benzo[d]imidazol-2-yl)methyl)amino)-3-(trifluoromethyl)imidazo[1,2-b]pyridazin-6-yl)azetidine-3-carboxylic acid]	
100 to 500		50 to 500	< 300	< 100	O[C@H]1CCN(c2cc(NCc3nc4cc(Cl)c(Cl)cc4[nH]3)c3ncc(C(F)(F)F)n3n2)C1 [Example 63, (S)-1-(8-(((5,6-dichloro-1H-benzo[d]imidazol-2-yl)methyl)amino)-3-(trifluoromethyl)imidazo[1,2-b]pyridazin-6-yl)pyrrolidin-3-ol]	
100 to 500		≤ 50	< 300	100 to 500	N#CC1(O)CN(c2cc(NCc3nc4cc(Cl)c(Cl)cc4[nH]3)c3ncc(C(F)(F)F)n3n2)C1 [Example 59, 1-(8-(((5,6-dichloro-1H-benzo[d]imidazol-2-yl)methyl)amino)-3-(trifluoromethyl)imidazo[1,2-b]pyridazin-6-yl)-3-hydroxyazetidine-3-carbonitrile]	
100 to 500		50 to 500	< 300	100 to 500	O[C@@H]1CCN(c2cc(NCc3nc4cc(Cl)c(Cl)cc4[nH]3)c3ncc(C(F)(F)F)n3n2)C1 [Example 62, (R)-1-(8-(((5,6-dichloro-1H-benzo[d]imidazol-2-yl)methyl)amino)-3-(trifluoromethyl)imidazo[1,2-b]pyridazin-6-yl)pyrrolidin-3-ol]	
< 100		50 to 500	300 to 3000	< 100	FC(F)(F)c1cnc2c(NCc3cc4cccnc4[nH]3)cc(N3CCOCC3)nn12 [Example 84, N-((1H-pyrrolo[2,3-b]pyridin-2-yl)methyl)-6-morpholino-3-(trifluoromethyl)imidazo[1,2-b]pyridazin-8-amine]	
< 100	< 100	≤ 50	< 300		N#CC1CCN(c2cc(NCc3nc4cc(Cl)c(Cl)cc4[nH]3)c3ncc(C(F)(F)F)n3n2)C1 (centres unmarked) [Example 49, 1-(8-(((5,6-dichloro-1H-benzo[d]imidazol-2-yl)methyl)amino)-3-(trifluoromethyl)imidazo[1,2-b]pyridazin-6-yl)pyrrolidine-3-carbonitrile]	
100 to 500		50 to 500	300 to 3000	< 100	OCC1CN(c2cc(NCc3nc4cc(Cl)c(Cl)cc4[nH]3)c3ncc(C(F)(F)F)n3n2)C1 [Example 60, (1-(8-(((5,6-dichloro-1H-benzo[d]imidazol-2-yl)methyl)amino)-3-(trifluoromethyl)imidazo[1,2-b]pyridazin-6-yl)azetidin-3-yl)methanol]	
100 to 500	< 100	≤ 50	< 300		CC1(O)CN(c2cc(NCc3nc4cc(Cl)c(Cl)cc4[nH]3)c3ncc(C(F)(F)F)n3n2)C1 [Example 52, 1-(8-(((5,6-dichloro-1H-benzo[d]imidazol-2-yl)methyl)amino)-3-(trifluoromethyl)imidazo[1,2-b]pyridazin-6-yl)-3-methylazetidin-3-ol]	
< 100		50 to 500	300 to 3000	< 100	FC(F)(F)c1cnc2c(NCc3cn4cccnc4n3)cc(N3CCOCC3)nn12 [Example 83, N-(imidazo[1,2-a]pyrimidin-2-ylmethyl)-6-morpholino-3-(trifluoromethyl)imidazo[1,2-b]pyridazin-8-amine]	
< 100	< 100	≤ 50	< 300		Fc1cc2nc(CNc3cc(N4CCNCC4)nn4c(C(F)(F)F)cnc34)[nH]c2cc1F [Example 109]	
< 100	< 100	≤ 50	< 300		Nc1ncc(-c2cc(NCc3nc4cc(F)c(F)cc4[nH]3)c3ncc(C(F)(F)F)n3n2)cn1 [Example 113, 6-(2-aminopyrimidin-5-yl)-N-((5,6-difluoro-1H-benzo[d]imidazol-2-yl)methyl)-3-(trifluoromethyl)imidazo[1,2-b]pyridazin-8-amine]	
